Assay results reported in ChEMBL document CHEMBL1201862, “PubChem BioAssay data set” (2004).
Activity calls are given as the source filed them. Cut-off read from the data, not from the text of the source: actives have a measured AC50 and inactives only a lower limit.

Assay: P. falciparum Dd2 growth inhibitors, dose response, SYBR Green, cherry-picked samples (AID 1159567)
Assay type: functional, cell-based

Row | Structure (SMILES) | AC50
1 | COc1ccc(-c2ccc([C@@H]3[C@@H](CO)N4C(=O)CN(C(=O)C5CCCC5)C[C@@H]34)cc2)cc1 | 4.83 µM (active)
2 | O=C(Cc1ccncc1)N1CC[C@@H]2[C@@H](CO)Nc3ccc(-c4cccc(F)c4)cc3[C@@H]21 | 3.43 µM (active)
3 | C/C=C/c1ccc([C@@H]2[C@@H](CO)N(CC3CCCC3)C23CN(S(=O)(=O)CC)C3)cc1 | 4.7 µM (active)
4 | C[C@H]1CN([C@@H](C)CO)C(=O)c2cc(NC(=O)Cc3cn(C)c4ccccc34)ccc2O[C@H]1CN(C)S(=O)(=O)c1cccs1 | 6.48 µM (active)
5 | CCCC(=O)N1CCC2(CC1)CN(Cc1cccnc1)[C@@H](CO)c1[nH]c3cc(OC)ccc3c12 | 5.19 µM (active)
6 | C[C@@H]1CN([C@@H](C)CO)C(=O)c2c(c3ccccc3n2C)-c2ccccc2CO[C@H]1CN(C)C(=O)Nc1ccc(-c2ccccc2)cc1 | 3.77 µM (active)
7 | COc1ccc2c3c([nH]c2c1)[C@@H](CO)N(Cc1ccccc1F)CC31CN(C(=O)C2CCC2)C1 | 7.2 µM (active)
8 | COc1ccc2c3c([nH]c2c1)[C@H](CO)N(Cc1ccccc1Cl)CC31CN(C(=O)C2CC2)C1 | 5.65 µM (active)
